≈ marks a conversion by molar mass, not a printed value.
How the values were obtained:
[1] = test system: S. pneumoniae B0541; test: microtiter broth serial dilution MIC, S. pneumoniae B0541; type: cell-based, Streptococcus pneumoniae; conditions: unit assumed
Description: (§1) In particular, the compounds of the invention may be active against strains of Staphylococcus aureus, Streptococcus pneumoniae, Moraxella catarrhalis, Streptococcus pyogenes, or Haemophilus influenzae. […] (Table 1.)

[2] = test system: S. pyogenes B0545 M; test: microtiter broth serial dilution MIC, S. pyogenes B0545 M; type: cell-based, Streptococcus pyogenes; conditions: S. pyogenes B0545 M (efflux resistant strain); unit assumed
Description: as §1

[3] = test system: E. coli B0001; test: microtiter broth serial dilution MIC, E. coli B0001; type: cell-based; conditions: unit assumed
Description: as §1

[4] = test system: S. aureus B0329; test: microtiter broth serial dilution MIC, S. aureus B0329; type: cell-based, Staphylococcus aureus; conditions: unit assumed
Description: as §1

[5] = test system: S. pneumoniae B0326 M; test: microtiter broth serial dilution MIC, S. pneumoniae B0326 M; type: cell-based, Streptococcus pneumoniae; conditions: unit assumed
Description: as §1

[6] = test system: S. pyogenes B0543 iMLS; test: microtiter broth serial dilution MIC, S. pyogenes B0543 iMLS; type: cell-based, Streptococcus pyogenes; conditions: S. pyogenes B0543 iMLS (inducible resistant strain); unit assumed
Description: as §1

[7] = test system: H. influenzae B0529; test: microtiter broth serial dilution MIC, H. influenzae B0529; type: cell-based, Haemophilus influenzae; conditions: unit assumed
Description: as §1

[8] = test system: M. catarrhalis B0324; test: microtiter broth serial dilution MIC, M. catarrhalis B0324; type: cell-based, Moraxella catarrhalis; conditions: unit assumed
Description: as §1

[9] = test system: S. pyogenes B0542; test: microtiter broth serial dilution MIC, S. pyogenes B0542; type: cell-based, Streptococcus pyogenes; conditions: unit assumed
Description: as §1

Compound | MIC [1] | MIC [2] | MIC [3] | MIC [4] | MIC [5] | MIC [6] | MIC [7] | MIC [8] | MIC [9]
8a-Aza-8a-homoerythromycin | 0.125 µg/mL | 32 µg/mL | 16 µg/mL | 2 µg/mL | 64 µg/mL | 8 µg/mL | 1 µg/mL | 2 µg/mL | 0.25 µg/mL
CC[C@H]1OC(=O)[C@H](C)[C@@H](O[C@H]2C[C@@](C)(OC)[C@@H](O)[C@H](C)O2)[C@H](C)[C@@H](O[C@@H]2O[C@H](C)C[C@H](N(C)C)[C@H]2O)[C@](C)(O)C[C@@H](C)CN[C@H](C)[C@@H](O)[C@]1(C)O [9-Deoxo-9a-aza-9a-homoerythromycin] | 0.25 µg/mL (≈ 0.34 µM) | 16 µg/mL (≈ 21.8 µM) | 4 µg/mL (≈ 5.44 µM) | 4 µg/mL (≈ 5.44 µM) | 16 µg/mL (≈ 21.8 µM) | 32 µg/mL (≈ 43.5 µM) | 0.5 µg/mL (≈ 0.68 µM) | 1 µg/mL (≈ 1.36 µM) | 0.125 µg/mL (≈ 0.17 µM)
CC[C@H]1OC(=O)[C@H](C)[C@@H](O[C@H]2C[C@@](C)(OC)[C@@H](O)[C@H](C)O2)[C@H](C)[C@@H](O[C@@H]2O[C@H](C)C[C@H](N(C)C)[C@H]2O)[C@](C)(O)C[C@@H](C)CN[C@H](C)[C@@H](OC)[C@]1(C)O [Ex. 3, 11-O-METHYL-9-DEOZO-9A-AZA-9A-HOMOERYTHROMYCIN] | 0.125 µg/mL (≈ 0.167 µM) | 4 µg/mL (≈ 5.34 µM) | 2 µg/mL (≈ 2.67 µM) | 1 µg/mL (≈ 1.34 µM) | 8 µg/mL (≈ 10.7 µM) | 16 µg/mL (≈ 21.4 µM) | 0.5 µg/mL (≈ 0.668 µM) | 0.125 µg/mL (≈ 0.167 µM) | 0.125 µg/mL (≈ 0.167 µM)
CC[C@H]1OC(=O)[C@H](C)[C@@H](O[C@H]2C[C@@](C)(OC)[C@@H](O)[C@H](C)O2)[C@H](C)[C@@H](O[C@@H]2O[C@H](C)C[C@H](N(C)C)[C@H]2O)[C@](C)(O)C[C@@H](C)NC(=O)[C@H](C)[C@@H](OC)[C@]1(C)O [Ex. 5, 11-O-METHYL-8A-AZA-8A-HOMOERYTHROMYCIN] | 0.125 µg/mL (≈ 0.164 µM) | 16 µg/mL (≈ 21 µM) | 16 µg/mL (≈ 21 µM) | 0.5 µg/mL (≈ 0.655 µM) | 32 µg/mL (≈ 41.9 µM) | 4 µg/mL (≈ 5.24 µM) | 1 µg/mL (≈ 1.31 µM) | 0.125 µg/mL (≈ 0.164 µM) | 0.125 µg/mL (≈ 0.164 µM)
